{
  "source": "PubChem BioAssay AID1648",
  "about": "(Sanford-Burnham Center for Chemical Genomics, 2009)",
  "note": "Calls of active or inactive are those of the source. The rule behind the calls is not given here. Residues, ends and D or L forms follow the SMILES beside them.",
  "data": [
    {"target": "Serine/threonine-protein kinase mTOR (Homo sapiens) (UniProt P42345)", "sequence (P42345 2015-2114)": "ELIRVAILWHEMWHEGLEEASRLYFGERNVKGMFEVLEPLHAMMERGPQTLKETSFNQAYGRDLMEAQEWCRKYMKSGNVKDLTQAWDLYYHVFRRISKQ", "assay": "mTOR FRB domain ligand binding – biophysical, NMR (AID 1648)", "conditions": "NMR binding to FRB domain, chemical shift", "values": [
      {"molecule": "CC1SC(=NC(=O)c2ccco2)NC1=O", "note": "(centres undefined)", "Kd": "> 4 mM (inactive)"},
      {"molecule": "O=c1[nH]c(=S)c2c(n1-c1ccccc1)CCC2", "Kd": "> 4 mM (inactive)"},
      {"molecule": "CNC(=O)Cn1c(=O)n(C)c2ccccc21", "Kd": "> 4 mM (inactive)"},
      {"molecule": "C(=C\\c1ccccc1)/C=N/n1cnnc1", "Kd": "> 4 mM (inactive)"},
      {"molecule": "COC(=O)c1cc(-c2c(C)nn(-c3ccccc3)c2C)n[nH]1", "Kd": "> 4 mM (inactive)"},
      {"molecule": "C=C1C([C@]2(C)C(CC(=O)OC)[C@@](C)(COC(C)=O)OC(=O)C[C@@H]2OC(C)=O)[C@@H](OC=O)[C@H](OC(=O)C(OC(C)=O)C(C)CC)[C@@]2(C)[C@H](c3ccoc3)CC(=O)C12O", "note": "(some centres undefined)", "Kd": "> 4 mM (inactive)"},
      {"molecule": "Cc1occc(=O)c1O", "Kd": "> 4 mM (inactive)"},
      {"molecule": "O=C(O)c1csc(-c2cccnc2)n1", "Kd": "> 4 mM (inactive)"},
      {"molecule": "COc1cc2c(cc1OC)[C@@H]1C(=O)c3ccc4oc(C(C)C)cc4c3O[C@@H]1CO2", "Kd": "> 4 mM (inactive)"},
      {"molecule": "CCN1C(=O)c2c(C)nc3ccccc3c2C1=O", "Kd": "> 4 mM (inactive)"},
      {"molecule": "CC[C@@]1(O)C[C@H](O)c2c(cc3c(c2O)C(=O)c2c(O)ccc(O)c2C3=O)[C@H]1C(=O)OC", "Kd": "> 4 mM (inactive)"},
      {"molecule": "c1coc(-c2nc(-c3ccncc3)no2)c1", "Kd": "> 4 mM (inactive)"},
      {"molecule": "Nc1ncnc2c1ncn2C1C[C@H](O)[C@@H](CO)O1", "note": "(some centres undefined)", "Kd": "> 4 mM (inactive)"},
      {"molecule": "O=C(O)/C=C1\\NC(=O)c2ccccc21", "Kd": "> 4 mM (inactive)"},
      {"molecule": "O=C(Nc1cccnc1)c1c(F)cccc1F", "Kd": "> 4 mM (inactive)"},
      {"molecule": "c1ccc(-c2nnc3sc(-c4ccncc4)nn23)cc1", "Kd": "> 4 mM (inactive)"},
      {"molecule": "COCCn1c(SC)nc2c1c(=O)[nH]c(=O)n2C", "Kd": "> 4 mM (inactive)"},
      {"molecule": "Cc1ccc(S(=O)(=O)CC(N)=O)cc1", "Kd": "> 4 mM (inactive)"},
      {"molecule": "COc1cc(C)c2c(c1C=O)Oc1c(c(C)c(O)c3c1C(O)OC3=O)OC2=O", "note": "(centres undefined)", "Kd": "> 4 mM (inactive)"},
      {"molecule": "COc1ccc(-c2cc(=O)c3ccccc3o2)cc1", "Kd": "> 4 mM (inactive)"},
      {"molecule": "Nc1ccccc1OC(F)(F)F", "Kd": "> 4 mM (inactive)"},
      {"molecule": "Cc1ccc(N)nc1", "Kd": "> 4 mM (inactive)"},
      {"molecule": "NC(=O)NC1NC(=O)NC1=O", "note": "(centres undefined)", "Kd": "> 4 mM (inactive)"},
      {"molecule": "Cc1nnc(-n2cnc3ccccc32)c2ccccc12", "Kd": "> 4 mM (inactive)"},
      {"molecule": "COc1cc2c(cc1OC)Cc1cc(OC)c(OC)cc1Cc1cc(OC)c(OC)cc1C2", "Kd": "> 4 mM (inactive)"},
      {"molecule": "Cc1ccc(N2C(=O)CCC2=O)cc1", "Kd": "> 4 mM (inactive)"},
      {"molecule": "NC(N)=NCCCCN=C(N)N", "Kd": "> 4 mM (inactive)"},
      {"molecule": "Cc1cccc(C)c1NC(=O)/C=C/C(=O)O", "Kd": "> 4 mM (inactive)"},
      {"molecule": "Cc1c(C)c2c(c(C)c1O)CCC(C)(CCCC(C)CCCC(C)CCCC(C)C)O2", "note": "(centres undefined)", "Kd": "> 4 mM (inactive)"},
      {"molecule": "C=C(C)C1Cc2c(ccc(C(=O)O)c2O)O1", "note": "(centres undefined)", "Kd": "> 4 mM (inactive)"},
      {"molecule": "O=C(Nc1ccon1)c1cc2c(s1)CCCC2", "Kd": "> 4 mM (inactive)"},
      {"molecule": "OCc1ccc(CN2CCOCC2)cc1", "Kd": "> 4 mM (inactive)"},
      {"molecule": "Nc1nc2ccc(C(=O)O)cc2s1", "Kd": "> 4 mM (inactive)"},
      {"molecule": "O=C(c1ccc(Cl)s1)N1CCOCC1", "Kd": "> 4 mM (inactive)"},
      {"molecule": "O=C1NC(=S)S/C1=C/c1ccncc1", "Kd": "> 4 mM (inactive)"},
      {"molecule": "O=C(c1ccco1)N1CCn2c1nc1ccccc12", "Kd": "> 4 mM (inactive)"},
      {"molecule": "CN1CCN(CC(O)c2ccccc2)CC1", "note": "(centres undefined)", "Kd": "> 4 mM (inactive)"},
      {"molecule": "O=C(NCc1n[nH]c(=O)c2ccccc12)C1CC1", "Kd": "> 4 mM (inactive)"},
      {"molecule": "O=C(O[C@@H]1Cc2c(O)cc(O)cc2O[C@@H]1c1cc(O)c(O)c(O)c1)c1cc(O)c(O)c(O)c1", "Kd": "> 4 mM (inactive)"},
      {"molecule": "COC(=O)N1CCN(c2ccc(OC)cc2)CC1", "Kd": "> 4 mM (inactive)"},
      {"molecule": "COc1ccc2nc(N)sc2c1", "Kd": "> 4 mM (inactive)"},
      {"molecule": "O=C1CCCN1c1ccc(S(=O)O)cc1", "Kd": "> 4 mM (inactive)"},
      {"molecule": "CN(C)C(=S)Nc1ccc([N+](=O)[O-])cc1", "Kd": "> 4 mM (inactive)"},
      {"molecule": "CC(=O)c1cccc(NC(=O)N2CCc3ccccc3C2)c1", "Kd": "> 4 mM (inactive)"},
      {"molecule": "O=C1CC(N2CCC(O)CC2)C(=O)N1c1ccc(F)cc1", "note": "(centres undefined)", "Kd": "> 4 mM (inactive)"},
      {"molecule": "O=C(CSc1ncnc2ccccc12)NCCCO", "Kd": "> 4 mM (inactive)"},
      {"molecule": "COc1cc(O)c2c(=O)cc(-c3ccc(OC)c(-c4c(O)cc(O)c5c(=O)cc(-c6ccc(O)cc6)oc45)c3)oc2c1", "Kd": "> 4 mM (inactive)"},
      {"molecule": "CN(C)S(=O)(=O)c1ccc(N2CCOCC2)nc1", "Kd": "> 4 mM (inactive)"},
      {"molecule": "OCc1ccc2c(c1)OCCCO2", "Kd": "> 4 mM (inactive)"},
      {"molecule": "CC(C)NC(=S)NCc1cnn(C)c1", "Kd": "> 4 mM (inactive)"},
      {"molecule": "Nc1cccc(F)c1-c1ncon1", "Kd": "> 4 mM (inactive)"},
      {"molecule": "Cc1ccccc1NC(=O)C1CCC(=O)N1", "note": "(centres undefined)", "Kd": "> 4 mM (inactive)"},
      {"molecule": "O=C(Nc1ccc2c(c1)OCO2)c1c(F)cccc1F", "Kd": "> 4 mM (inactive)"},
      {"molecule": "O=C(O)CCc1ccc2c(c1)OCO2", "Kd": "> 4 mM (inactive)"},
      {"molecule": "COc1ccc(NC(=O)C(N)=O)cc1Cl", "Kd": "> 4 mM (inactive)"},
      {"molecule": "C=C1CCC(=O)C(C)CCC2C1CC2(C)C", "note": "(centres undefined)", "Kd": "> 4 mM (inactive)"},
      {"molecule": "Cc1onc(-c2c(Cl)cccc2Cl)c1C(N)=O", "Kd": "> 4 mM (inactive)"},
      {"molecule": "O=C1Nc2ccccc2C1C1(O)C(=O)Nc2ccc(F)cc21", "note": "(centres undefined)", "Kd": "> 4 mM (inactive)"},
      {"molecule": "Cn1ncc(SCc2ccco2)c(Cl)c1=O", "Kd": "> 4 mM (inactive)"},
      {"molecule": "CCOC(=O)c1snnc1-c1ccccc1", "Kd": "> 4 mM (inactive)"},
      {"molecule": "CN1CCN(C2CCN(Cc3ccccc3)CC2)CC1", "Kd": "> 4 mM (inactive)"},
      {"molecule": "O=C(NCc1cccc(Cl)c1)c1cnccn1", "Kd": "> 4 mM (inactive)"},
      {"molecule": "O=C(O)CCC(=O)Nc1nnc(C(F)(F)F)s1", "Kd": "> 4 mM (inactive)"},
      {"molecule": "O=C1CSC(=O)N1c1cccc(O)c1", "Kd": "> 4 mM (inactive)"},
      {"molecule": "Nc1nc2ccccc2n1CCN1CCCC1", "Kd": "> 4 mM (inactive)"},
      {"molecule": "CC(=O)c1cc(C)ccc1OC(=O)c1cccnc1", "Kd": "> 4 mM (inactive)"},
      {"molecule": "c1ccc(CCN2CCN(CCc3ccccn3)CC2)nc1", "Kd": "> 4 mM (inactive)"},
      {"molecule": "NC(=O)C1CCCN1S(=O)(=O)c1ccc(F)cc1", "note": "(centres undefined)", "Kd": "> 4 mM (inactive)"},
      {"molecule": "CC(=O)N[C@@H](CC(=O)O)C(=O)N[C@@H](CCC(=O)O)C(=O)O", "note": "(Ac-Asp-Glu-OH)", "Kd": "> 4 mM (inactive)"},
      {"molecule": "NC(=O)c1ccc(N2CCCCC2)c(N)c1", "Kd": "> 4 mM (inactive)"},
      {"molecule": "Cn1c(CSc2nc3ccccc3s2)n[nH]c1=S", "Kd": "> 4 mM (inactive)"},
      {"molecule": "Cc1ccc2nc(NC(=O)CN3CCOCC3)sc2c1", "Kd": "> 4 mM (inactive)"},
      {"molecule": "CC1C[C@H]2CC(=O)[C@H]3CCCN4CCC[C@H]2[C@]34C1", "note": "(some centres undefined)", "Kd": "> 4 mM (inactive)"},
      {"molecule": "Cn1nnc2c(N3CCC(C(N)=O)CC3)ncnc21", "Kd": "> 4 mM (inactive)"},
      {"molecule": "Cc1csc2nc(N)nn12", "Kd": "> 4 mM (inactive)"},
      {"molecule": "COC(=O)N1CCN(c2ccc(C(C)=O)cc2)CC1", "Kd": "> 4 mM (inactive)"},
      {"molecule": "CC1(C)C(=O)CC[C@@]2(C)C1C[C@@H](O)[C@@]1(C)C3=CC(=O)O[C@@H](c4ccoc4)[C@]3(C)CCC21", "note": "(some centres undefined)", "Kd": "> 4 mM (inactive)"},
      {"molecule": "COc1ccc2c3c1O[C@H]1C[C@@H](O)C=C[C@@]31CCN(C)C2", "Kd": "> 4 mM (inactive)"},
      {"molecule": "COC(=O)Nc1nc2c(C)cccc2s1", "Kd": "> 4 mM (inactive)"},
      {"molecule": "Cn1c(SCC(N)=O)nnc1-c1cccnc1", "Kd": "> 4 mM (inactive)"},
      {"molecule": "CN1CCC2(CC1)CC1CC3C=CC1(CN2)O3", "note": "(centres undefined)", "Kd": "> 4 mM (inactive)"},
      {"molecule": "C[C@]12CCC(=O)C=C1CCC1C2C(=O)C[C@@]2(C)C1CC[C@]2(O)C(=O)CO", "note": "(some centres undefined)", "Kd": "> 4 mM (inactive)"},
      {"molecule": "O=C(O)c1ccccc1C(=O)NCC1CCCO1", "note": "(centres undefined)", "Kd": "> 4 mM (inactive)"},
      {"molecule": "Cn1c(=O)n(-c2cccc(Cl)c2)c(=O)n1C", "Kd": "> 4 mM (inactive)"}
    ]}
  ]
}
